Assay results from patent US20080026996A1, “Selective Vpac2 Receptor Reptide Agonists” (ELI LILLY AND COMPANY, priority 2004, published 2008).
pEC50, pIC50: −log10 of the molar value. Where no end group is shown, it is not given here. [ ]: non-standard residue; d: D form. The star is where a group is joined. Hexanoyl = CCCCCC(=O)*; Aib = CC(C)(N)C(=O)O

Molecular target: T1, human VPAC2 (Homo sapiens, UniProt P41587)
T1 construct: expressed in transfected cells
T1 sequence (P41587 24-438): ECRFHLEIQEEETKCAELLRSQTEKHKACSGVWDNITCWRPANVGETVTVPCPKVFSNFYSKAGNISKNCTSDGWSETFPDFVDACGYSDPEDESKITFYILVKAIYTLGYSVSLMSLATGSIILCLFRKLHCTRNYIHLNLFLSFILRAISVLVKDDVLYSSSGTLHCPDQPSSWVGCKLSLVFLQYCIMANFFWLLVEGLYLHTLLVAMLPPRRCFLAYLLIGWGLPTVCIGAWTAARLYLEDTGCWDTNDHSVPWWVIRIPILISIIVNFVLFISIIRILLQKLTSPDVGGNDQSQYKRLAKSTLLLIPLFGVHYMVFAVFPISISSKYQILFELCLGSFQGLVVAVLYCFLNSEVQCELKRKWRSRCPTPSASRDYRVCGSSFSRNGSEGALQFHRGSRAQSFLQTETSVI
Assay: Alpha screen cAMP in vitro potency, human VPAC2 receptor
Type: cell-based
Conditions: cAMP generation; single result from two analyses performed in a single run; read-out: Human VPAC2 Receptor: Alpha Screen EC50
Method in brief: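 Dissociated cells, 50,000 per point in stimulation buffer, were incubated with stimuli and AlphaScreen acceptor beads for 60 min.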

Substance | pEC50
Hexanoyl-HSDAVFTDNYTRLRKQVAAKKYFQSIKNKRYGGPSSGAPPPS [Agonist P231] | 9.59
Hexanoyl-HSDAVFTDNYTRLRKQVAAKKYIQSIKNKRYGGPSSGAPPPS [Agonist P233] | 9.96
Hexanoyl-HSDAVFTDNYTRLRKQVAAKKYLQSFKNKRYGGPSSGAPPPS [Agonist P106] | 9.80
Hexanoyl-HSDAVFTDNYTRLRKQVAAKKYVQSIKNKRYGGPSSGAPPPS [Agonist P234] | 9.80
Hexanoyl-HSDAVFTDNYTRLRKQVAAKKYWQSIKNKRYGGPSSGAPPPS [Agonist P230] | 9.52
Hexanoyl-HSDAVFTDNYTRLRKQVAAKKY[Aib]QSIKNKRYGGPSSGAPPPS [Agonist P236] | 9.92
Hexanoyl-HSDAVFTDNYTRLRKQVAAKQYLQSIKNKRYGGPSSGAPPPS [Agonist P183] | 9.85
Hexanoyl-HSDAVFTDNYTRLRKQVAAKRYLQSIKNKRYGGPSSGAPPPS [Agonist P182] | 9.54
Hexanoyl-HSDAVFTDNYTRLRKQVAALKYLQSIKNKRYGGPSSGAPPPS [Agonist P151] | 10.15
Hexanoyl-HSDAVFTDNYTRLRKQVAATKYLQSIKNKRYGGPSSGAPPPS [Agonist P152] | 9.77
Hexanoyl-HSDAVFTDNYTRLRKQVAAVKYLQSIKNKRYGGPSSGAPPPS [Agonist P146] | 9.77
Hexanoyl-HSDAVFTDNYTRLRKQVAAWKYLQSIKNKRYGGPSSGAPPPS [Agonist P153] | 9.96
Hexanoyl-HSDAVFTDNYTRLRKQVAAYKYLQSIKNKRYGGPSSGAPPPS [Agonist P147] | 9.89
Hexanoyl-HSDAVFTDNYTRLRKQVALKKYLQSIKNKRYGGPSSGAPPPS [Agonist P155] | 9.62
Hexanoyl-HSDAVFTDNYTRLRRQVAAKKYLQSIKNKRYGGPSSGAPPPS [Agonist P176] | 9.55

Molecular target: T2, human VPAC1 (Homo sapiens, UniProt P32241)
T2 sequence (P32241 31-457): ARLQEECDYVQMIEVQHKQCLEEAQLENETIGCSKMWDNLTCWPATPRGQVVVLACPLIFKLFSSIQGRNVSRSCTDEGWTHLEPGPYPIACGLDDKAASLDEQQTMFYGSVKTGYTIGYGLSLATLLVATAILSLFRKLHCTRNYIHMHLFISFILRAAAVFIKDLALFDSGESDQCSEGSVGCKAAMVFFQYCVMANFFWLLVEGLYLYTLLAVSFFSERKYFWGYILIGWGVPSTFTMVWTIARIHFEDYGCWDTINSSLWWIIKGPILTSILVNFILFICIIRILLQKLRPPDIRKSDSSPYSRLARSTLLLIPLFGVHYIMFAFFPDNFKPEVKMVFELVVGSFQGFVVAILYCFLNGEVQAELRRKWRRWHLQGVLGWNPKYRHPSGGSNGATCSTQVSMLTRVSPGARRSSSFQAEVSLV
Assay: Filter binding assay, membranes of cells transiently transfected with human VPAC1, 125I-labeled VIP tracer (Table 2)
Design: expressed in transfected cells
Conditions: read-out: Human VPAC1 Receptor Binding
Method in brief: (§1)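 Membranes 2.5 μg/well; tracer ~40000 cpm; buffer 25 mM HEPES pH 7.4, 0.5% protease-free BSA; 1 h incubation, shaking. Glass-fibre filtration (0.5% polyethyleneamine presoak, 0.2% BSA block), 3× HEPES wash, dry 1 h at 60° C, scintillation count.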

Substance | pIC50
Hexanoyl-HSDAVFTDNYTRLRKQVAAKKYFQSIKNKRYGGPSSGAPPPS [Agonist P231] | 6.34
Hexanoyl-HSDAVFTDNYTRLRKQVAAKKYIQSIKNKRYGGPSSGAPPPS [Agonist P233] | 6.49
Hexanoyl-HSDAVFTDNYTRLRKQVAAKKYLQSFKNKRYGGPSSGAPPPS [Agonist P106] | 6.93
Hexanoyl-HSDAVFTDNYTRLRKQVAAKKYVQSIKNKRYGGPSSGAPPPS [Agonist P234] | 6.19
Hexanoyl-HSDAVFTDNYTRLRKQVAAKKYWQSIKNKRYGGPSSGAPPPS [Agonist P230] | 6.18
Hexanoyl-HSDAVFTDNYTRLRKQVAAKKY[Aib]QSIKNKRYGGPSSGAPPPS [Agonist P236] | 6.23
Hexanoyl-HSDAVFTDNYTRLRKQVAAKQYLQSIKNKRYGGPSSGAPPPS [Agonist P183] | 6.37
Hexanoyl-HSDAVFTDNYTRLRKQVAAKRYLQSIKNKRYGGPSSGAPPPS [Agonist P182] | 6.69
Hexanoyl-HSDAVFTDNYTRLRKQVAALKYLQSIKNKRYGGPSSGAPPPS [Agonist P151] | 6.69
Hexanoyl-HSDAVFTDNYTRLRKQVAATKYLQSIKNKRYGGPSSGAPPPS [Agonist P152] | 6.29
Hexanoyl-HSDAVFTDNYTRLRKQVAAVKYLQSIKNKRYGGPSSGAPPPS [Agonist P146] | 6.40
Hexanoyl-HSDAVFTDNYTRLRKQVAAWKYLQSIKNKRYGGPSSGAPPPS [Agonist P153] | 6.74
Hexanoyl-HSDAVFTDNYTRLRKQVAAYKYLQSIKNKRYGGPSSGAPPPS [Agonist P147] | 6.97
Hexanoyl-HSDAVFTDNYTRLRKQVALKKYLQSIKNKRYGGPSSGAPPPS [Agonist P155] | 6.64
Hexanoyl-HSDAVFTDNYTRLRRQVAAKKYLQSIKNKRYGGPSSGAPPPS [Agonist P176] | 7.03

Molecular target: T3, human PAC1 (Homo sapiens, UniProt P41586)
T3 sequence (P41586 21-468): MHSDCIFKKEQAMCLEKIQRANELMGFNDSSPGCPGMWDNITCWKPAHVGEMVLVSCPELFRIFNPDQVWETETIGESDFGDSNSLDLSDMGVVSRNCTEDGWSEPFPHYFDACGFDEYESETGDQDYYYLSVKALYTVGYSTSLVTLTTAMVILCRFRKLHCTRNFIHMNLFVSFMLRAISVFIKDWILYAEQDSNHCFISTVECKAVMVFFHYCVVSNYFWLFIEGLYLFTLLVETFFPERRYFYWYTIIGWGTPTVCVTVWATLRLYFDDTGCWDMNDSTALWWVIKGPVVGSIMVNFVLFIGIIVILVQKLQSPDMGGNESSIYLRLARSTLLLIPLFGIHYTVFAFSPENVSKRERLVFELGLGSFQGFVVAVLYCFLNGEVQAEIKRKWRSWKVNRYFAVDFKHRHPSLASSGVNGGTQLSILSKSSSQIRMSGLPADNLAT
Assay: Filter binding assay, membranes of cells transiently transfected with human PAC1, 125I-labeled PACAP-27 tracer (Table 2)
Design: expressed in transfected cells
Conditions: read-out: Human PAC1 Receptor Binding
Method in brief: as §1

Substance | pIC50
Hexanoyl-HSDAVFTDNYTRLRKQVAAKKYFQSIKNKRYGGPSSGAPPPS [Agonist P231] | 6.52
Hexanoyl-HSDAVFTDNYTRLRKQVAAKKYIQSIKNKRYGGPSSGAPPPS [Agonist P233] | 6.49
Hexanoyl-HSDAVFTDNYTRLRKQVAAKKYLQSFKNKRYGGPSSGAPPPS [Agonist P106] | 5.74
Hexanoyl-HSDAVFTDNYTRLRKQVAAKKYVQSIKNKRYGGPSSGAPPPS [Agonist P234] | 6.61
Hexanoyl-HSDAVFTDNYTRLRKQVAAKKYWQSIKNKRYGGPSSGAPPPS [Agonist P230] | 6.33
Hexanoyl-HSDAVFTDNYTRLRKQVAAKKY[Aib]QSIKNKRYGGPSSGAPPPS [Agonist P236] | 6.65
Hexanoyl-HSDAVFTDNYTRLRKQVAAKQYLQSIKNKRYGGPSSGAPPPS [Agonist P183] | 6.30
Hexanoyl-HSDAVFTDNYTRLRKQVAAKRYLQSIKNKRYGGPSSGAPPPS [Agonist P182] | 6.37
Hexanoyl-HSDAVFTDNYTRLRKQVAALKYLQSIKNKRYGGPSSGAPPPS [Agonist P151] | 6.14
Hexanoyl-HSDAVFTDNYTRLRKQVAATKYLQSIKNKRYGGPSSGAPPPS [Agonist P152] | 6.17
Hexanoyl-HSDAVFTDNYTRLRKQVAAVKYLQSIKNKRYGGPSSGAPPPS [Agonist P146] | 5.81
Hexanoyl-HSDAVFTDNYTRLRKQVAAWKYLQSIKNKRYGGPSSGAPPPS [Agonist P153] | 5.95
Hexanoyl-HSDAVFTDNYTRLRKQVAAYKYLQSIKNKRYGGPSSGAPPPS [Agonist P147] | 6.33
Hexanoyl-HSDAVFTDNYTRLRKQVALKKYLQSIKNKRYGGPSSGAPPPS [Agonist P155] | 6.83
Hexanoyl-HSDAVFTDNYTRLRRQVAAKKYLQSIKNKRYGGPSSGAPPPS [Agonist P176] | 6.64

Molecular target: T1, human VPAC2
Assay: Filter binding assay, membranes of stable VPAC2 cell line, 125I-labeled VIP tracer (Table 2)
Conditions: read-out: Human VPAC2 Receptor Binding
Method in brief: as §1

Substance | pIC50
Hexanoyl-HSDAVFTDNYTRLRKQVAAKKYFQSIKNKRYGGPSSGAPPPS [Agonist P231] | 9.26
Hexanoyl-HSDAVFTDNYTRLRKQVAAKKYIQSIKNKRYGGPSSGAPPPS [Agonist P233] | 9.51
Hexanoyl-HSDAVFTDNYTRLRKQVAAKKYLQSFKNKRYGGPSSGAPPPS [Agonist P106] | 9.66
Hexanoyl-HSDAVFTDNYTRLRKQVAAKKYVQSIKNKRYGGPSSGAPPPS [Agonist P234] | 9.48
Hexanoyl-HSDAVFTDNYTRLRKQVAAKKYWQSIKNKRYGGPSSGAPPPS [Agonist P230] | 9.12
Hexanoyl-HSDAVFTDNYTRLRKQVAAKKY[Aib]QSIKNKRYGGPSSGAPPPS [Agonist P236] | 9.43
Hexanoyl-HSDAVFTDNYTRLRKQVAAKQYLQSIKNKRYGGPSSGAPPPS [Agonist P183] | 9.59
Hexanoyl-HSDAVFTDNYTRLRKQVAAKRYLQSIKNKRYGGPSSGAPPPS [Agonist P182] | 9.77
Hexanoyl-HSDAVFTDNYTRLRKQVAALKYLQSIKNKRYGGPSSGAPPPS [Agonist P151] | 9.14
Hexanoyl-HSDAVFTDNYTRLRKQVAATKYLQSIKNKRYGGPSSGAPPPS [Agonist P152] | 9.43
Hexanoyl-HSDAVFTDNYTRLRKQVAAVKYLQSIKNKRYGGPSSGAPPPS [Agonist P146] | 9.28
Hexanoyl-HSDAVFTDNYTRLRKQVAAWKYLQSIKNKRYGGPSSGAPPPS [Agonist P153] | 9.15
Hexanoyl-HSDAVFTDNYTRLRKQVAAYKYLQSIKNKRYGGPSSGAPPPS [Agonist P147] | 9.62
Hexanoyl-HSDAVFTDNYTRLRKQVALKKYLQSIKNKRYGGPSSGAPPPS [Agonist P155] | 9.15
Hexanoyl-HSDAVFTDNYTRLRRQVAAKKYLQSIKNKRYGGPSSGAPPPS [Agonist P176] | 8.16

Test system: not listed separately
Assay: Rat serum stability studies (remaining active peptide by DiscoveRx cAMP on CHO-VPAC2 cells)
Type: in vitro ADME
Conditions: not given
Method in brief: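 EC50 from a DiscoveRx cAMP read-out on CHO-VPAC2 cells indexes how much peptide stays active after 18 h in rat serum at 37° C without aprotinin, against an aprotinin-protected 4° C aliquot.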

Substance | Rat Serum Stability (estimated purity in % after 18 hours)
Hexanoyl-HSDAVFTDNYTRLRKQVAAKKYFQSIKNKRYGGPSSGAPPPS [Agonist P231] | 0.57%
Hexanoyl-HSDAVFTDNYTRLRKQVAAKKYIQSIKNKRYGGPSSGAPPPS [Agonist P233] | 1.27%
Hexanoyl-HSDAVFTDNYTRLRKQVAAKKYLQSFKNKRYGGPSSGAPPPS [Agonist P106] | 0.11%
Hexanoyl-HSDAVFTDNYTRLRKQVAAKKYVQSIKNKRYGGPSSGAPPPS [Agonist P234] | 0.69%
Hexanoyl-HSDAVFTDNYTRLRKQVAAKKYWQSIKNKRYGGPSSGAPPPS [Agonist P230] | 0.53%
Hexanoyl-HSDAVFTDNYTRLRKQVAAKKY[Aib]QSIKNKRYGGPSSGAPPPS [Agonist P236] | 0.79%
Hexanoyl-HSDAVFTDNYTRLRKQVAAKQYLQSIKNKRYGGPSSGAPPPS [Agonist P183] | 0.18%
Hexanoyl-HSDAVFTDNYTRLRKQVAAKRYLQSIKNKRYGGPSSGAPPPS [Agonist P182] | 0.15%
Hexanoyl-HSDAVFTDNYTRLRKQVAALKYLQSIKNKRYGGPSSGAPPPS [Agonist P151] | 0.35%
Hexanoyl-HSDAVFTDNYTRLRKQVAATKYLQSIKNKRYGGPSSGAPPPS [Agonist P152] | 0.06%
Hexanoyl-HSDAVFTDNYTRLRKQVAAVKYLQSIKNKRYGGPSSGAPPPS [Agonist P146] | 0.53%
Hexanoyl-HSDAVFTDNYTRLRKQVAAWKYLQSIKNKRYGGPSSGAPPPS [Agonist P153] | <0.16%
Hexanoyl-HSDAVFTDNYTRLRKQVAAYKYLQSIKNKRYGGPSSGAPPPS [Agonist P147] | 0.07%
Hexanoyl-HSDAVFTDNYTRLRKQVALKKYLQSIKNKRYGGPSSGAPPPS [Agonist P155] | 0.25%
Hexanoyl-HSDAVFTDNYTRLRRQVAAKKYLQSIKNKRYGGPSSGAPPPS [Agonist P176] | <0.14%
